Values joined by “and” are separate entries in the source; they are usually repeats but may differ in a detail not shown here. Equal entries are not always repeated.
Test system: mouse insulinoma cells (MIN6)
Experiment: Increase in fluorescence intensity (uptake) after administration of fluorescent glucose derivative to MIN6 cells, influence of cytochalasin B (CB) or phloretin (PHT), fluorescence microplate reader
Format: cell-based
Settings: CDG 100 μM, 37° C. 5 minutes; CB 10 μM; MIN6 culture day 13; average, two independent experiments
Description: Increase in fluorescence intensity caused by the administration of CDG, and the influence of a glucose transporter (GLUT) inhibitor CB thereon were confirmed by targeting MIN6 cells.
A 96-well clear-bottom plate having wells of 8 rows (A to H) and 12 columns (1 to 12) (μClear-PLATE, Greiner Bio-One, BLACK) was used in measurement. A culture solution containing MIN6 cells suspended at a density of 60×10^4 cells/mL was added dropwise at 10 μL/well to the central portion of the well, and then, the plate was left standing for 40 minutes in an incubator for fixation. The cells were cultured by the addition of a culture solution at 200 μL/well (6000 cells/well). For layout, the cells were seeded to wells B to H on the third column and wells A to G on the fifth column. Medium replacement was performed by replacing half the amount with a fresh one once every two days at 0 to 4 DIV (days in vitro) and every day at 5 DIV or later. […]
CDG and 2-NBDG were each independently administered to the wells on the third and fifth columns using an 8-channel pipette such that these derivatives were alternately placed on the same plate. Before the administration, the autofluorescence of each well was measured in advance using a fluorescence microplate reader (Flex Station, Molecular Devices, LLC). […] The measurement was conducted at Bottom Read, Averaging 3, and Photomultiplier sensitivity high. […]

**Q.** How did the “fluorescence intensity in the presence of CB relative to the absence of CB” value turn out when `O=c1ccc2ccc(NC3C(O)OC(CO)[C@@H](O)[C@@H]3O)cc2o1` (stereo partly drawn) [CDG, 2-deoxy-2-(2-oxo-2H-chromen-7-yl)amino-D-glucose] was run?
**A.** 47.3% and 42.9%
